Source: article PMC12643509, “High-throughput screens identify genotype-specific therapeutics for channelopathies” (JCI Insight, 2025)
Where “and” joins values, the source holds several entries; their conditions need not be identical. Identical values can stand only once.

Experiments:
wild-type KV11.1 = wild-type KV11.1 (Homo sapiens, UniProt Q12809)
WT Kv11.1 = WT Kv11.1 (Homo sapiens, UniProt Q12809); conditions: 24 hour and washout, individual wells
WT Kv11.1, sequence (Q12809 whole entry): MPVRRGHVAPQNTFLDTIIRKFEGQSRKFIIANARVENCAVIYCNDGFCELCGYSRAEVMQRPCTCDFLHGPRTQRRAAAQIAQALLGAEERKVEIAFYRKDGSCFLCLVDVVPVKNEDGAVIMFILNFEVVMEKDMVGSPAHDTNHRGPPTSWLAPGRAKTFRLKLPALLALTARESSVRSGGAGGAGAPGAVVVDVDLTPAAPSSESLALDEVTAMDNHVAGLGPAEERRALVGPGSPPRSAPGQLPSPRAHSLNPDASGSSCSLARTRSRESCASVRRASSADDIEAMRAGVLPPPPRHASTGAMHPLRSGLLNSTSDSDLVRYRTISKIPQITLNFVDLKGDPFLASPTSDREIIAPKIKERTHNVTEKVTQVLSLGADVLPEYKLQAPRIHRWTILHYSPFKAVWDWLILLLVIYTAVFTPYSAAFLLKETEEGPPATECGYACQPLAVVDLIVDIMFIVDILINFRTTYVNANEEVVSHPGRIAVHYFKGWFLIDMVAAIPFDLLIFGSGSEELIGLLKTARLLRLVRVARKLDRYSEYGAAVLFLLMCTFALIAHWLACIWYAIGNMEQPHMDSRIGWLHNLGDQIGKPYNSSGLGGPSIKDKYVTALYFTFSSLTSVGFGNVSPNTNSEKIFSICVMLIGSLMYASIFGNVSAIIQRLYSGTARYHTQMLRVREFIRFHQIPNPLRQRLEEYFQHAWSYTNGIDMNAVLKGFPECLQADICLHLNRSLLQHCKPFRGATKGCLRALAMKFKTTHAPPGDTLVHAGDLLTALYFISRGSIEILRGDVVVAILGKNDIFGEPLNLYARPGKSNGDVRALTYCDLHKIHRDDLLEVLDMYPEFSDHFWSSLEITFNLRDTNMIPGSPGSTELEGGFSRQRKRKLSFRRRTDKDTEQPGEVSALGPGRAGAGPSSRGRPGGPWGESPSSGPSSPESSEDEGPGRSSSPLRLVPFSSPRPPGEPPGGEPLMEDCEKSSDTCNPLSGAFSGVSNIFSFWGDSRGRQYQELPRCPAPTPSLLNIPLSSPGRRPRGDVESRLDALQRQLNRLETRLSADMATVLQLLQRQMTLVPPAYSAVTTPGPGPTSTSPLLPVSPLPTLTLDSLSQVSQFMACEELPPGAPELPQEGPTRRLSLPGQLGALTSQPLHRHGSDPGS
Description: plot of hits tested for 24-h our WT toxicity. Each point repres ents the med ia n robust Z score
after 24-hour treatm ent and washout in cells ex pressing WT.
robust Z scores be low bas eli ne function).
second ary screens w ere perform ed i n triplicate us ing 1 0 µ M drug treatme nt to assess: 1)
acute channel block, measur ed after a 15-minute inc ubati on with the drug present duri ng
recordi ngs; and 2) t oxicit y in W T channels, assesse d af t er a 24-hour drug ex posure fol low ed
(C) Tl+-measurements after 24-hour treatment and washout in HEK cells

wild-type KV11.1, sequence (Q12809 whole entry): as above

SMILES	inhibition of WT channels (wild-type KV11.1)	Changes in WT function (thallium flux) (WT Kv11.1)
CCc1c(C)[nH]c2c1C(=O)C(CN1CCOCC1)CC2 (stereo not drawn) [Moban, moban]	did not inhibit WT channels	–
OC[C@H]1O[C@H](O[C@]2(CCl)O[C@H](CCl)[C@@H](O)[C@@H]2O)[C@H](O)[C@@H](O)[C@H]1Cl [Sucralose, sucralose]	did not inhibit WT channels	0.1161 and 0.1317 and 0.1214
